{"source": "patent US9757399B2", "about": "“Butyrylcholinesterase inhibitors” (priority 2006, dated 2017)", "key": {"[1]": {"assay_type": "in vivo, male Long-Evans rats", "details": "rat, intraperitoneal 0.2 mL of 10 mg/mL in DMSO, 30 minutes, brain tissue (1.5 g), GC/MS; one value per animal", "method": "An animal study using two groups (n=7/group) of male Long-Evans rats (200-225 g, Charles River, Portage, Mich.) was conducted to determine whether DB2ClPP crosses the blood brain barrier. DB2ClPP was dissolved in dimethyl sulfoxide (DMSO). Rats were injected intraperitoneally with either 0.2 mL DMSO (vehicle control) or 0.2 mL of a 10 mg/mL solution of DB2ClPP with DMSO as solvent. Thirty minutes after DB2ClPP treatment, animals were deeply anesthetized with isoflurane and then decapitated. Brains were removed quickly, rinsed in ice cold phosphate buffer saline (pH 7.4) and block dissected and flash frozen in liquid nitrogen and stored at −80° C. until assayed.\nThe tissue from two animals injected with DB2ClPP were processed as follows: i) brain tissue (1.5 g) was allowed to thaw on ice in a Dounce homogenizer; ii) 10 mL of methylene chloride was added and the tissue extracted with 20 strokes of the loose fitting pestle. The homogenate was clarified by centrifugation and the supernatant extracted three times with methylene chloride using a separatory funnel. The organic phase was collected, pooled, and dried over magnesium sulfate. The eluate was then concentrated down to a volume of approximately 200 μl under nitrogen and analyzed by GC/MS for the presence of the DB2ClPP. A solution of neat DB2ClPP served as control. The DB2ClPP was present in both samples. […]"}, "[2]": {"system": "porcine umbilical stem cells", "assay_type": "cell-based", "details": "increasing concentrations, 48 hours, Neurobasal Medium", "method": "Porcine umbilical stem cells were cultured in Neurobasal Medium supplemented with B27 (Invitrogen) and antibiotics for various periods of with varying concentrations of di-n-butyl-2-chlorophenyl phosphate. Cells were collected, washed, counted, and analyzed for viability by Trypan Blue staining."}, "[3]": {"system": "human umbilical cells", "assay_type": "in vitro ADME", "method": "Also, the uptake of di-n-butyl-2-chlorophenyl phosphate by human umbilical cells was measured after […] for both undifferentiated cells and differentiating neurons. (Table 6)"}}, "note": "Values joined by “and” are separate entries in the source; they are usually repeats but may differ in a detail not shown here. Equal values may be shown once. Read-outs that look alike come from different tables or passages of the source."}
{"molecule": "CCCCOP(=O)(OCCCC)Oc1ccccc1Cl", "note": "[DB2ClPP, Di-n-butyl 2-chlorophenyl phosphate]", "values": [{"measurement": "amount of DB2ClPP in brain sample", "setting": "[1]", "value": "220 ng and 125 ng"}, {"measurement": "effect on mortality of porcine umbilical stem cells (FIG. 7)", "setting": "[2]", "value": "did not have any significant effect on mortality"}, {"measurement": "uptake, fg/cell", "setting": "[3]; Neurons, 0 hours", "value": "78.85 ± 8.04", "unit": "fg/cell"}, {"measurement": "uptake, fg/cell", "setting": "[3]; Neurons, 24 hours", "value": "820.52 ± 82.32", "unit": "fg/cell"}, {"measurement": "uptake, fg/cell", "setting": "[3]; Undifferentiated cells, 0 hours", "value": "114.72 ± 37.93", "unit": "fg/cell"}, {"measurement": "uptake, fg/cell", "setting": "[3]; Undifferentiated cells, 24 hours", "value": "795.89 ± 202.41", "unit": "fg/cell"}]}
